According to patent publication US11547679B2, “Mitoriboscins: mitochondrial-based therapeutics targeting cancer cells, bacteria and pathogenic yeast” (LUNELLA BIOTECH, INC., priority 2017, dated 2023):
Values after ≈ are worked out from the molar mass of the structure shown.

Key:
MCF7 cells [1] = assay: Seahorse XF96 metabolic flux: oxygen consumption rate (OCR), ATP; type: cell-based, human; conditions: for rank order potency to reduce maximal respiration and ATP production: MCF7, top 10 hits; for mitochondrial oxygen-consumption: MCF7, 72 hours treatment
Excerpt: (§1) The present approach further involves methods of functional validation at step S105, during which a compound's function as a mitochondrial inhibitor may be confirmed. A number of methods may be used for functional validation, including, for example, metabolic flux analysis, mammosphere assays, viability assays, and antibiotic (anti-bacterial and/or anti-fungal) activity. For example, the inventors determined extracellular acidification rates (ECAR) and real-time oxygen consumption rates (OCR) for MCF7 cells using the Seahorse Extracellular Flux (XF96) analyzer (Seahorse Bioscience, MA, USA). MCF7 cells were maintained in DMEM supplemented with 10% FBS (fetal bovine serum), 2 mM GlutaMAX, and 1% Pen-Strep. 5,000 cells per well were seeded into XF96-well cell culture plates, and incubated overnight at 37° C. in a 5% CO2 humidified atmosphere. After 24 hours, cells were treated with selected compounds showing ATP-depletion without prominent cytotoxicity at various concentrations (or vehicle alone). After 72 hours of treatment, cells were washed in pre-warmed XF assay media (for OCR measurement, XF assay media was supplemented with 10 mM glucose, 1 mM Pyruvate, 2 mM L-glutamine and adjusted at pH 7.4). Cells were maintained in 175 μL/well of XF assay media at 37° C. in a non-CO2 incubator for 1 hour. During incubation, 25 μL of 80 mM glucose, 9 μM oligomycin, 1M 2-deoxyglucose (for ECAR measurement) and 25 μL of 10 μM oligomycin, 9 μM FCCP, 10 μM rotenone, 10 μM antimycin A (for OCR measurement) in XF assay media was loaded into the injection ports of the XFe-96 sensor cartridge. During the experiment, the instrument injected these inhibitors into the wells at a given time point, while ECAR/OCR was measured continuously. ECAR and OCR measurements were normalized by protein content (using the Sulphorhodamine B assay). Data sets were analyzed by XFe-96 software, using one-way ANOVA and Student's t-test calculations. All experiments were performed in triplicate, and results validated the mitochondrial inhibition effects of mitoriboscin compounds described herein. It should be appreciated that numerous methods are known for functional validation, and that persons of skill in the art may select one or more depending on the validation needs (e.g., other assays that measure or approximate mitochondrial function). The present approach involves methods of function validation of mitoriboscin compounds. For example, the inventors assessed functional validation of three candidates using the Seahorse Analyzer, which quantitatively measures oxygen consumption rate (OCR) and extracellular acidification rate (ECAR). OCR is a surrogate marker for OXPHOS and ECAR is a surrogate marker for glycolysis and L-lactate production.

MCF7 cells [2] = assay: Seahorse XF96 metabolic flux: extracellular acidification rate (ECAR), glycolysis; type: cell-based, human
Excerpt: as §1, with “ECAR and OCR measurements were normalized by protein content (using the Sulphorhodamine B assay).” left out, “All experiments were performed in triplicate, and results validated the mitochondrial inhibition effects of mitoriboscin compounds described herein. It should be appreciated that numerous methods are known for functional validation, and that persons of skill in the art may select one or more depending on the validation needs (e.g., other assays that measure or approximate mitochondrial function). The present approach involves methods of function validation of mitoriboscin compounds.” left out, “OCR is a surrogate marker for OXPHOS and ECAR is a surrogate marker for glycolysis and L-lactate production.” left out

MCF7 cells [3] = assay: Mammosphere formation; type: cell-based, human; conditions: MCF7, 5 μM
Excerpt: The present approach involves methods of testing compounds, and in particular mitoriboscins, for anti-cancer properties. As discussed above, vHTS and computational chemistry may be used to identify candidate mitochondrial inhibitors. Those candidates may be tested for specific anti-cancer properties. For examples, the inventors compared seven candidate compounds in parallel for their ability to inhibit mammosphere formation in MCF7 cells. […] For example, 23/G4 (Group 1) reduced mammosphere formation by 50% at this concentration. Similarly, 24/F9 (Group 2) and 24/D4 (Group 3), both reduced mammosphere formation by ˜90%.

P. auriginosa ATCC 27853 = assay: MIC by broth dilution method; type: cell-based; conditions: P. auriginosa ATCC 27853, 24 hours at 37° C.
Experimental: (§2) The minimal inhibitory concentration (MIC) of the antibacterial compounds may be determined using the broth dilution method, according to CLSI guidelines. Test compound solutions (or antibiotic solutions used as positive controls) were diluted, serially, with MHB medium. Then, the suspensions of the microorganisms, prepared from overnight cultures of bacteria in the MHB medium, at a concentration of 10^6 CFU/ml, were added to each dilution in a 1:1 ratio. McFarland standards were used as a reference to adjust the turbidity of microorganism suspensions. Growth (or lack thereof) of the microorganisms was determined after incubation for 24 hours at 37° C. by turbidimetry (wavelength of 600 nm). […] The susceptibility test by measurement of MIC was performed in triplicate and repeated three times independently.

[4] = tested on: Strept. pyogenes ATCC 19615; assay: MIC by broth dilution method; type: cell-based; conditions: Strept. pyogenes ATCC 19615, 24 hours at 37° C.
Experimental: as §2

K. pneumoniae ATCC 13883 = assay: MIC by broth dilution method; type: cell-based; conditions: K. pneumoniae ATCC 13883, 24 hours at 37° C.
Experimental: as §2

MRSA ATCC 43300 = assay: MIC by broth dilution method; type: cell-based, Methicillin-resistant Staphylococcus aureus
Experimental: as §2, with “nm). MIC 50 and MIC 99 are defined as the minimum inhibitory concentration of the compound required for 50% and 99% inhibition of bacterial growth.” for “nm).”, “independently. Statistical significance was determined using the Student's t-test and values of less than 0.05 were considered significant.” for “independently.”

MCF7 cell monolayers = assay: Cell viability of MCF7 cell monolayers; type: cell-based, human
Experimental: (§3) The present approach includes methods of confirming cell viability. Persons of skill in the art may select one or more methods for confirming cell viability suitable for the particular embodiment. The inventors initially used the Sulphorhodamine (SRB) assay, which is based on the measurement of cellular protein content. After treatment for 72 hours in 96-well plates, cells were fixed with 10% trichloroacetic acid (TCA) for 1 hour in the cold room, and were dried overnight at room temperature. Then, cells were incubated with SRB for 15 min, washed twice with 1% acetic acid, and air dried for at least 1 hour. Finally, the protein-bound dye was dissolved in a 10 mM Tris, pH 8.8 solution and read using the plate reader at 540-nm. Using the SRB assay, the inventors selected only the compounds depleting ATP levels without prominent cytotoxicity for further analysis. Prominent cytotoxicity was defined as fewer than 30% of cells still on the plate. Of course, embodiments employing other cell viability confirmation methodology may select compounds for further analysis based on other considerations as may be known in the art.
(§4) Based on this analysis, the inventors assessed the functional effects of the three candidates on overall viability in MCF7 cell monolayers and normal human fibroblasts (hTERT-BJ1 cells) (FIG. 6). […]

[5] = tested on: normal human fibroblasts (hTERT-BJ1 cells); assay: Cell viability of normal fibroblasts; type: cell-based; conditions: 5 μM
Experimental: as §3, §4

Row | SMILES | rank order potency to reduce maximal respiration and ATP production (MCF7 cells [1]; FIG. 10) | reduction of mammosphere formation (MCF7 cells [3]) [%] | MIC 50% (P. auriginosa ATCC 27853) [µg/mL] | MIC 99% (P. auriginosa ATCC 27853) [µg/mL] | MIC 50% [4] [µg/mL] | MIC 99% [4] [µg/mL] | MIC 50% (K. pneumoniae ATCC 13883) [µg/mL] | MIC 99% (K. pneumoniae ATCC 13883) [µg/mL] | sensitivity of MRSA (MRSA ATCC 43300) | mitochondrial oxygen-consumption (MCF7 cells [1]) | other results
1 | OC1C(NCc2ccccc2)CCCC1Oc1ccccc1Oc1cccc(F)c1 (centres unmarked) [23/E9] | top 6 |  |  |  |  |  |  |  |  |  | 
2 | CN1CCCN(C2CCN(Cc3cc(Cl)ccc3OCc3ccccc3)CCC2O)CC1 (centres unmarked) [24/H6] | top 6 |  |  |  |  |  |  |  |  |  | 
3 | CN(C)C1CC2(CCN(Cc3cc(Cl)ccc3OCc3ccccc3)CC2)OCC1(C)O (centres unmarked) [24/H9] | top 6 |  |  |  |  |  |  |  |  |  | 
4 | CCCc1ccc(OCc2ccccc2)c(CN2CCC3(CC2)CC(N(C)C)C(C)(O)CO3)c1 (centres unmarked) [24/D4] |  | ~90 | 16 (≈ 34.3 µM) | 32 (≈ 68.6 µM) | 16 (≈ 34.3 µM) | 32 (≈ 68.6 µM) | 16 (≈ 34.3 µM) | 32 (≈ 68.6 µM) | sensitive | dose-dependently inhibited | effect on glycolysis (MCF7 cells [2]): suppressed
5 | CN(C)Cc1cccc(C2CCCN2Cc2ccccc2OCc2cccc(F)c2)n1 (centres unmarked) [25/B3] | top 6 |  |  |  |  |  |  |  |  |  | 
6 | CN1CCN(C2CCN(Cc3cc(C(C)(C)C)ccc3OCc3ccccc3)CCC2O)CC1 (centres unmarked) [24/F9] | top 6 | ~90 | >32 | >64 | 32 (≈ 68.7 µM) | 64 (≈ 137 µM) | 32 (≈ 68.7 µM) | 64 (≈ 137 µM) |  | dose-dependently inhibited | effect on glycolysis (MCF7 cells [2]): suppressed
7 | OC1C(NCc2ccccc2)CCCC1Oc1ccccc1Oc1ccc(Cl)cc1 (centres unmarked) [23/G4] | top 6 | 50 | 16 (≈ 37.7 µM) | 32 (≈ 75.5 µM) | 4 (≈ 9.44 µM) | 8 (≈ 18.9 µM) | 16 (≈ 37.7 µM) | 32 (≈ 75.5 µM) | sensitive | dose-dependently inhibited | increase in glycolysis rates (MCF7 cells [2]): more than 1.5 fold; effect on overall cell viability of MCF7 monolayers (MCF7 cell monolayers; 500 nM and 2.5 μM): little or no effect; reduction of viability of MCF7 cells (MCF7 cell monolayers; 5 μM): 70%; effect on viability of hTERT-BJ1 cells [5]: no effect; reduction of ATP levels (MCF7 cells [1]; MCF7, 500 nM): > 50%; reduction of ATP levels (MCF7 cells [1]; MCF7, 2.5 μM): ~75%; reduction in ATP levels (MCF7 cells [1]; MCF7, 5 μM, FIG. 10): greater than 75%
8 | C[C@H]1c2cccc(O)c2C(=O)C2=C(O)[C@]3(O)C(=O)C(C(N)=O)=C(O)[C@@H](N(C)C)[C@@H]3[C@@H](O)[C@@H]21 [DOXYCYCLINE, reference compound] |  |  |  |  |  |  |  |  |  |  | MIC50 (P. auriginosa ATCC 27853): 1 µg/mL (≈ 2.25 µM); MIC99 (P. auriginosa ATCC 27853): 2 µg/mL (≈ 4.5 µM)
9 | CC1(C)S[C@@H]2[C@H](NC(=O)[C@H](N)c3ccc(O)cc3)C(=O)N2[C@H]1C(=O)O [AMOXICILLIN, reference compound] |  |  |  |  |  |  |  |  | resistant |  | 
